Results on 15 compounds are retold here after PubChem BioAssay (NCI).

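Each compound was tested at five concentrations against cells in 96-well plates for 48 hours. TGI denotes the concentration required for complete inhibition of growth.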

Test in all cases: NCI anticancer screen, dose series, 48 h
Experiment [1] relates to 786-0 renal.
For experiment [2], the system named is A549 NSCLC.
In experiment [3] the test system is ACHN renal.
For experiment [4], the system named is BT-549 breast.
Experiment [5] has as its system CCRF-CEM leukemia.
Experiment [6] has as its system COLO 205 colon.
Experiment [7] deals with HCT-116 colon.
Experiment [8] has as its system KM12 colon.
Experiment [9] concerns LOX IMVI melanoma.
For experiment [10], the system named is MDA-MB-435.
Experiment [11] deals with NCI-H23 lung.
For experiment [12], the system named is NCI-H460 lung.
Experiment [13] relates to NCI/ADR-RES ovarian.
Experiment [14] relates to RPMI-8226 leukemia.
Experiment [15] has as its system SNB-19 CNS.
The test system of experiment [16] is SR leukemia.
In experiment [17] the test system is U251 CNS.
In experiment [18] the test system is NCI-H226 lung.
Experiment [19] has as its system SW-620 colon.
For experiment [20], the system named is A498 renal.

Consider `COc1ccc(C2Oc3c(cccc3OC)C=C2[N+](=O)[O-])cc1` (stereo unspecified), for which the TGI in experiment [1] was 4.98 µM; in experiment [2], 26.4 µM; in experiment [3], 3.38 µM; in experiment [4], 4.32 µM; in [5] it was > 100 µM; in experiment [6], 6.95 µM. Besides, the TGI in experiment [7] came to 2.55 µM; in [8], 4.52 µM; in experiment [9] it was 2.81 µM; in experiment [10], 10.9 µM; in experiment [11], 12.4 µM; in experiment [12], 4.15 µM. Also, the TGI in experiment [13] is 14.5 µM; in experiment [14], > 100 µM; in experiment [15], 16.6 µM; in [16], > 100 µM; in experiment [17], 3.76 µM.
On to `CC1CC(=O)NC2CC1C2(C)C` (stereo unspecified), for which the TGI in experiment [1], in [2], in experiment [3], in [4], in experiment [5] and in experiment [6] was > 100 µM throughout. The TGI in experiment [8], in experiment [9], in [10], in [18], in experiment [11] and in experiment [12] was > 100 µM in each case. Also, the TGI in [14], in [15], in experiment [16], in [19] and in experiment [17] was > 100 µM each time.
With `COc1cc(C2SC(N)=Nc3c2c(C)nn3C(=O)Cc2ccccc2)ccc1O` (stereo unspecified), the TGI in experiment [1], in experiment [20], in [2], in experiment [3], in experiment [4] and in experiment [5] was > 100 µM in each case. Besides, the TGI in experiment [6], in [7], in experiment [8], in experiment [9], in experiment [10] and in experiment [18] was > 100 µM in each case. Besides, the TGI in experiment [11], in experiment [12], in experiment [14], in [15], in experiment [16] and in experiment [19] was > 100 µM throughout.
For `O=C1C=Cc2c(I)sc(I)c21`, the TGI was 22.8 µM in [1]; > 100 µM in experiment [20]; > 100 µM in experiment [2]; > 100 µM in experiment [3]; 41.5 µM in experiment [4]; 18.3 µM in experiment [5]. Further, the TGI was 36.8 µM in experiment [6]; 33.1 µM in [7]; 50 µM in experiment [8]; 25.2 µM in experiment [9]; 62.1 µM in experiment [10]; > 100 µM in [18]. Moreover, the TGI was 36.7 µM in experiment [11]; > 100 µM in [12]; 67.7 µM in experiment [13]; 27 µM in experiment [16]; 38.1 µM in [19]; 33.3 µM in experiment [17].
As to `CN(C)N1C(=O)CC2(CCN(CCCC(=O)c3ccc(F)cc3)CC2)C1=O`, the TGI in experiment [1], in experiment [20], in experiment [2], in experiment [3], in [4] and in experiment [6] was > 100 µM in each case. Further, the TGI in [7], in experiment [8], in experiment [9], in [10], in [18] and in experiment [11] was > 100 µM throughout. Moreover, the TGI in [12], in experiment [13], in experiment [14], in experiment [15], in [16] and in experiment [19] was > 100 µM in each case. For the same compound, in experiment [17], the TGI is > 100 µM.
On to `C=C1C(=O)O[C@H]2[C@H]3O[C@@H](C[C@@H]12)[C@](C)(O)CCCC(C)=CCC[C@H]3C`, for which the TGI in experiment [1] is > 100 µM; in experiment [2], 33.6 µM; in experiment [3], 21.7 µM; in [4], 3.07 µM; in experiment [5] it was 3.24 µM; in experiment [6], 21 µM. The TGI is 31.1 µM in [7]; 27.1 µM in [8]; 48.2 µM in [9]; 15.8 µM in experiment [10]; 36.9 µM in experiment [18]; 35.3 µM in experiment [11]. Moreover, the TGI in experiment [12] is 30.5 µM; in experiment [13], 22.7 µM; in experiment [14] it was 17.4 µM; in experiment [15] it was 32.4 µM; in experiment [16], > 100 µM; in experiment [19] it was 23 µM. In experiment [17], this compound yielded a TGI of 29.8 µM.
Consider `Cc1nn(C(=O)c2ccncc2)c2c1C(c1ccccc1O)SC(N)=N2` (stereo unspecified), for which the TGI in experiment [1], in experiment [2], in [3], in [4], in [5] and in experiment [6] was > 10 µM throughout. The TGI in experiment [7], in experiment [8], in [9], in [10], in experiment [18] and in experiment [11] was > 10 µM each time. In addition, the TGI in experiment [12], in [13], in experiment [14], in experiment [15], in experiment [16] and in experiment [19] was > 10 µM each time. The TGI in experiment [17] is > 10 µM.
Regarding `COc1ccc(N=C2C(=Nc3ccc(OC)cc3)N(c3ccccc3[N+](=O)[O-])C(=S)N2c2ccc(OC)cc2)cc1`, the TGI in experiment [1] is > 100 µM; in experiment [2] it was > 100 µM; in [3], > 100 µM; in [4] it was > 100 µM; in [6], 30.8 µM; in [7] it was > 100 µM. For the same compound, the TGI in [8], in experiment [10], in [18], in [11], in [13] and in experiment [14] was > 100 µM in each case. Also, the TGI in experiment [15], in experiment [16], in [19] and in [17] was > 100 µM in each case.
As for `O=C1CCC2(c3ccc(F)cc3)Nc3ncncc3N12` (stereo unspecified), the TGI in experiment [1], in experiment [2], in experiment [3], in [4], in experiment [5] and in [8] was > 10 µM throughout. Also, the TGI in [9], in [10], in [18], in [11], in experiment [12] and in experiment [13] was > 10 µM throughout. In addition, the TGI in experiment [15], in experiment [16], in [19] and in experiment [17] was > 10 µM in each case.
`CC(C)(Cc1ccccc1)Cc1cc(O)ccc1O`: the TGI was 29 µM in [1]; 47.6 µM in [20]; > 100 µM in experiment [2]; 66.1 µM in [3]; 74.1 µM in experiment [4]; 36.7 µM in experiment [5]. Besides, the TGI in experiment [6] was found to be 39.1 µM; in experiment [7] it was 31.6 µM; in [8], 32.1 µM; in experiment [9], 26.8 µM; in experiment [10], 49.2 µM; in experiment [18] it was 97.8 µM. The TGI was found to be 38.7 µM in [11]; 37.4 µM in experiment [12]; 42.9 µM in [13]; 48.7 µM in [15]; 27.7 µM in experiment [16]; 49.6 µM in [19]. This compound had a TGI in experiment [17] of 32.2 µM.
For the compound `Clc1ccc(N=Cc2cc3cc(Br)ccc3nc2Cl)cc1`, the TGI in experiment [1] was > 50 µM; in experiment [4], > 50 µM; in experiment [5] it was 32.5 µM; in experiment [6] it was > 50 µM; in [7] it was > 50 µM; in [8] it was > 50 µM. Also, the TGI in [9], in [10], in [18], in experiment [11], in experiment [12] and in [13] was > 50 µM in each case. Also, the TGI in experiment [14] is 38.4 µM; in experiment [16], 42.2 µM; in experiment [19], > 50 µM.
`O=C1/C(=C/c2cccc3ccccc23)Cc2ccccc21`: the TGI in [1] is 48.3 µM; in experiment [20] it was > 100 µM; in experiment [2] it was > 100 µM; in experiment [3], > 100 µM; in [4], 29.9 µM; in experiment [5] it was > 100 µM. For the same compound, the TGI in [8] was > 100 µM; in [9], > 100 µM; in [18], 49.6 µM; in experiment [11], 65.8 µM; in [12], > 100 µM; in experiment [13] it was > 100 µM. Besides, the TGI is > 100 µM in [14]; 64 µM in experiment [15]; > 100 µM in experiment [16]; > 100 µM in experiment [19]; 52 µM in experiment [17].
In the case of `Oc1ccc2c3c1OC1c4[nH]c5c(c4CC4(O)C(C2)N(CC2CC2)CC[C@]314)CC1(O)C2Cc3ccc(O)c4c3[C@@]1(CCN2CC1CC1)C5O4` (stereo partly specified), the TGI is 46 µM in experiment [1]; 32.4 µM in [20]; 37.6 µM in experiment [2]; > 100 µM in experiment [3]; > 100 µM in experiment [4]; 35.6 µM in experiment [6]. The TGI in experiment [7] was 33 µM; in [8], 32.2 µM; in experiment [9] it was 83.2 µM; in experiment [10], 37.6 µM; in [18], 88.7 µM; in experiment [11], > 100 µM. Moreover, the TGI is > 100 µM in experiment [13]; 60.8 µM in experiment [14]; 64 µM in experiment [15]; 57.5 µM in experiment [16]; 53.8 µM in experiment [19]; 34.6 µM in experiment [17].
As to `N=c1c2ccccc2nc2oc3ccc(Cl)cc3n12`, the TGI is 15.9 µM in experiment [1]; 97 µM in [2]; 28.4 µM in [3]; > 100 µM in experiment [4]; > 100 µM in experiment [5]; > 100 µM in [6]. The TGI in experiment [7] was 69.3 µM; in experiment [8] it was > 100 µM; in experiment [9], 26.8 µM; in experiment [10] it was > 100 µM; in experiment [18] it was 34.6 µM; in experiment [11], 34.2 µM. The TGI is > 100 µM in experiment [12]; > 100 µM in experiment [13]; 23.5 µM in experiment [14]; > 100 µM in experiment [15]; > 100 µM in [16]; > 100 µM in experiment [19]. In experiment [17], the TGI was found to be 17.8 µM.
On to `CC(=O)OCC(OC(C)=O)C(OC(C)=O)C(OC(C)=O)C(/C=N\Nc1nc2ccccc2c(=O)[nH]1)OC(C)=O` (stereo unspecified), for which the TGI in [1], in [2], in [3], in experiment [4], in [5] and in [6] was > 100 µM each time. Also, the TGI in experiment [7], in [8], in experiment [9], in experiment [10], in experiment [18] and in experiment [11] was > 100 µM in each case. For the same compound, the TGI in experiment [12], in experiment [13], in [14], in experiment [15], in experiment [16] and in [19] was > 100 µM throughout. In addition, the TGI in experiment [17] was > 100 µM.
